Measurements: ChEMBL document CHEMBL1142522, “Hedgehog/GLI-mediated transcriptional inhibitors from Zizyphus cambodiana” (Bioorg Med Chem, 2008)
Activity calls are given as the source filed them. The rule behind the calls is not given here.

Tests used:
[1] = target: T1, Zinc finger protein GLI1 (Homo sapiens) (UniProt P08151); assay: Inhibition of GLI1-mediated transcriptional activity in human HaCaT cells by luciferase based reporter gene assay; format: cell-based
T1 sequence (whole entry): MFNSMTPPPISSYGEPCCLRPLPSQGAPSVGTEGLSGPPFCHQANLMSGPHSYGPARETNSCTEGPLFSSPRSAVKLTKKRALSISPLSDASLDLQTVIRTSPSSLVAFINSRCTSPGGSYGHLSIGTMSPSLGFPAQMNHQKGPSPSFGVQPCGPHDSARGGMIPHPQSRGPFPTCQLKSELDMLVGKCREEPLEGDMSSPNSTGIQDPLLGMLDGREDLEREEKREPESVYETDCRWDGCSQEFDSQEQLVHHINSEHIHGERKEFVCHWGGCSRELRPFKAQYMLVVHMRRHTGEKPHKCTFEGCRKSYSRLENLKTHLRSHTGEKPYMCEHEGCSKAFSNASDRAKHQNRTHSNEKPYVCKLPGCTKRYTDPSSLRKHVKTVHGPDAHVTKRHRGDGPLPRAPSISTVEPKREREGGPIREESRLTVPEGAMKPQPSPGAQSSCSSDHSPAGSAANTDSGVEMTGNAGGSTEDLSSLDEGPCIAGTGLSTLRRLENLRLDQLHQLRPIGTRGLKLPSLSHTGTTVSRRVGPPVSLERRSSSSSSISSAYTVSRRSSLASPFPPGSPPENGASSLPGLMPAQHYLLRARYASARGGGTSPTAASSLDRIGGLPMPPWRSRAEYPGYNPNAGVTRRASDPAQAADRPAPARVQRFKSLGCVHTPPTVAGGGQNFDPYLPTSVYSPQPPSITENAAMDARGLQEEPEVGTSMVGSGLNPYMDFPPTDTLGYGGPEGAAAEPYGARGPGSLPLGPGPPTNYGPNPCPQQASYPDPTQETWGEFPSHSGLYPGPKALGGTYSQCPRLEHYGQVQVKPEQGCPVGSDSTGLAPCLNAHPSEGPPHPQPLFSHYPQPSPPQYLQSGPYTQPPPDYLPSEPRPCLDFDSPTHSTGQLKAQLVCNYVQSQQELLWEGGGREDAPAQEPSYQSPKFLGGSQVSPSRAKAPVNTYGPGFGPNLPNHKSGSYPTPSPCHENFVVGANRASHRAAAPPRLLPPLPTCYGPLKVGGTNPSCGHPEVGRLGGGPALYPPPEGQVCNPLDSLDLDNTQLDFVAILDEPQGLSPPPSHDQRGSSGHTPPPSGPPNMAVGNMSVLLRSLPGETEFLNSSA

PANC-1 [2] = assay: Cytotoxicity against human PANC1 after 24 hrs by fluorometric microculture cytotoxicity assay; format: functional, cell-based; details: PANC-1, 24 h
DU-145 [3] = assay: Cytotoxicity against human DU145 cells after 24 hrs by fluorometric microculture cytotoxicity assay; format: functional, cell-based; details: DU-145, 24 h
[4] = Cytotoxicity against mouse C3H10T1/2 cells after 24 hrs by fluorometric microculture cytotoxicity assay; format: cell-based; details: C3H 10T1/2, 24 h
[5] = target: T1, Zinc finger protein GLI1 (Homo sapiens); assay: Effect on Hh/GLI-mediated transcription in human HaCaT cells assessed as reduction of PTCH protein expression by Western blot; format: cell-based
[6] = target: T1, Zinc finger protein GLI1 (Homo sapiens); assay: Effect on Hh/GLI-mediated transcription in human HaCaT cells assessed as reduction of BCL2 protein expression by Western blot; format: cell-based
HaCaT = assay: Decrease in GLI1 protein expression in human HaCaT cells by Western blot; format: functional, cell-based
[7] = target: T1, Zinc finger protein GLI1 (Homo sapiens); assay: Effect on Hh/GLI-mediated transcription in human PANC1 assessed as decrease in […] protein expression by Western blot; format: cell-based; details: PANC-1
[8] = target: T1, Zinc finger protein GLI1 (Homo sapiens); assay: Effect on Hh/GLI-mediated transcription in human PANC1 assessed as decrease in BCL2 protein expression by Western blot; format: cell-based; details: PANC-1
PANC-1 [9] = assay: Cytotoxicity against human PANC1 at 100 uM after 24 hrs by fluorometric microculture cytotoxicity assay; format: functional, cell-based
DU-145 [10] = assay: Cytotoxicity against human DU145 cells at 100 uM after 24 hrs by fluorometric microculture cytotoxicity assay; format: functional, cell-based
[11] = target: T1, Zinc finger protein GLI1 (Homo sapiens); assay: Inhibition of GLI-mediated […] mRNA production in human PANC1 cells by RT-PCR analysis; format: cell-based; details: PANC-1

| Structure (SMILES) | Activity [1] | IC50 (PANC-1 [2]) [µM] | IC50 (DU-145 [3]) [µM] | IC50 [4] [µM] | Activity [5] | Activity [6] | Activity (HaCaT) | Activity [7] | Activity [8] | Activity (PANC-1 [9]) | Activity (DU-145 [10]) | Activity [11] |
| --- | --- | --- | --- | --- | --- | --- | --- | --- | --- | --- | --- | --- |
| C=C(C)[C@@H]1CC[C@]2(C(=O)O)CC[C@]3(C)[C@H](CC[C@@H]4[C@@]5(C)C[C@@H](O)[C@H](O)C(C)(C)[C@@H]5CC[C@]43C)[C@@H]12 [ALPHITOLIC ACID] | Dose-dependent effect | 41 | 70 | 145 | – | – | – | – | – | – | – | – |
| C=C(C)[C@@H]1CC[C@]2(C(=O)O)CC[C@]3(C)[C@H](CC[C@@H]4[C@@]5(C)CC[C@H](O)C(C)(C)[C@@H]5CC[C@]43C)[C@@H]12 [BETULINIC ACID] | Dose-dependent effect | 44 | 37 | 82 | Active | Active | Active | Active | Active | – | – | – |
| C=C(C)[C@@H]1CC[C@]2(C(=O)O)CC[C@]3(C)[C@H](CC[C@@H]4[C@@]5(C)[C@H](CO)[C@@H](O)C(C)(C)[C@@H]5CC[C@]43C)[C@@H]12 [CEANOTHANOLIC ACID] | – | > 200 | > 200 | > 200 | – | – | – | – | – | inactive | inactive | – |
| C=C(C)[C@@H]1CC[C@]2(C(=O)O)CC[C@]3(C)[C@H](CC[C@@H]4[C@@]5(C)[C@@H](C(=O)O)[C@H](O)C(C)(C)[C@@H]5CC[C@]43C)[C@@H]12 [CEANOTHIC ACID] | – | 195 | > 200 | > 200 | – | – | – | – | – | inactive | inactive | – |
| C=C(C)[C@@H]1CC[C@]2(C(=O)O)CC[C@]3(C)[C@H](CC[C@@H]4[C@@]5(C)[C@H](C=O)[C@@H](O)C(C)(C)[C@@H]5CC[C@]43C)[C@@H]12 [COLUBRINIC ACID] | Dose-dependent effect | 43 | 78 | 167 | Dose-dependent effect | Dose-dependent effect | – | Active | Active | – | – | Dose-dependent effect |
